The structures appear in SMILES notation. Converted amounts (≈) assume the structure as drawn. The source made the active and inactive calls. No cut-off for these calls is given here.

One test concerns A549. Briefly: Cytotoxicity against human A549 cells assessed as inhibition of cell proliferation after 48 hrs by MTT assay. In kind it is functional, cell-based. The note with it: A549, 48 h.
The subject of test [1] is MCF7. The test can be described thus: Cytotoxicity against human MCF7 cells assessed as inhibition of cell proliferation after 48 hrs by MTT assay. The class given is functional, cell-based. The note with it: MCF7, 48 h. (Tetrazolium dyes change colour on reduction, which living cells bring about.)
The next test relates to HCT-116. Briefly: Cytotoxicity against human HCT116 cells assessed as inhibition of cell proliferation after 48 hrs by MTT assay. The note with it: HCT-116, 48 h. The class given is functional, cell-based.
The subject of a further test is HepG2. The test can be described thus: Cytotoxicity against human HepG2 cells assessed as inhibition of cell proliferation after 48 hrs by MTT assay. In kind it is functional, cell-based. Particulars: HepG2, 48 h.
The nature of test [2]: Cytotoxicity against human HFB4 cells assessed as inhibition of cell proliferation after 48 hrs by MTT assay. In kind it is cell-based.
Test [3] concerns MCF7. The test can be described thus: Upregulation of p53 mRNA expression in human MCF7 cells at IC50 after 48 hrs by RT-PCR method. In kind it is functional, cell-based.
Test [4] deals with MCF7. Briefly: Upregulation of Bax mRNA expression in human MCF7 cells at IC50 after 48 hrs by RT-PCR method. The class given is functional, cell-based.
Test [5] relates to MCF7. The test can be described thus: Upregulation of caspase-3 mRNA expression in human MCF7 cells at IC50 after 48 hrs by RT-PCR method. In kind it is functional, cell-based.
Test [6] concerns MCF7. The test can be described thus: Downregulation of BCL-2 mRNA expression in human MCF7 cells at IC50 after 48 hrs by RT-PCR method. The class given is functional, cell-based.
For test [7], the system named is MCF7. The test can be described thus: Downregulation of MMP1 mRNA expression in human MCF7 cells at IC50 after 48 hrs by RT-PCR method. The class given is functional, cell-based.
The test system of test [8] is MCF7. The test can be described thus: Downregulation of CDK4 mRNA expression in human MCF7 cells at IC50 after 48 hrs by RT-PCR method. The class given is functional, cell-based.
Test [9] has as its system MCF7. The test can be described thus: Cell cycle arrest in human MCF7 cells assessed as accumulation at G0/G1 phase at 50.05 ug/ml after 48 hrs by propidium iodide staining-based flow cytometric method (reference value: 71.13%). The class given is functional. Background: Flow cytometry measures light scatter and fluorescence of single cells or particles in a stream.
Test [10] has as its system MCF7. Briefly: Cell cycle arrest in human MCF7 cells assessed as accumulation at S phase at 50.05 ug/ml after 48 hrs by propidium iodide staining-based flow cytometric method (reference value: 23.5%). The class given is functional.
Test [11] has as its system MCF7. The test can be described thus: Cell cycle arrest in human MCF7 cells assessed as accumulation at G2/M phase at 50.05 ug/ml after 48 hrs by propidium iodide staining-based flow cytometric method (reference value: 4.82%). The class given is functional.
In test [12] the test system is MCF7. Briefly: Induction of apoptosis in human MCF7 cells at 50.05 ug/ml after 48 hrs by propidium iodide staining-based flow cytometric method (reference value: 0.55%). The class given is functional.
Test [13] has as its system MCF7. The test can be described thus: Induction of apoptosis in human MCF7 cells assessed as cell aggregates at 50.05 ug/ml after 48 hrs by propidium iodide staining-based flow cytometric method (reference value: 4.49%). In kind it is functional.
The subject of test [14] is MCF7. The test can be described thus: Induction of apoptosis in human MCF7 cells assessed as cell debris at 50.05 ug/ml after 48 hrs by propidium iodide staining-based flow cytometric method (reference value: 2.75%). The class given is functional.
Test [15] relates to MCF7. Briefly: Induction of apoptosis in human MCF7 cells assessed as induction of caspase-3 activity by measuring caspase-3 levels at 50.05 ug/ml after 24 hrs ELISA (reference value: 0.0197 ng/ml). The class given is functional. (An ELISA detects its analyte on a solid surface through an enzyme-linked reagent.)
Test [16] relates to MCF7. The test can be described thus: Cell cycle arrest in human MCF7 cells assessed as accumulation at G0/G1 phase at 27.15 ug/ml after 48 hrs by propidium iodide staining-based flow cytometric method (reference value: 71.13%). In kind it is functional.
Test [17] has as its system MCF7. Briefly: Cell cycle arrest in human MCF7 cells assessed as accumulation at S phase at 27.15 ug/ml after 48 hrs by propidium iodide staining-based flow cytometric method (reference value: 23.5%). The class given is functional.
In test [18] the test system is MCF7. The test can be described thus: Cell cycle arrest in human MCF7 cells assessed as accumulation at G2/M phase at 27.15 ug/ml after 48 hrs by propidium iodide staining-based flow cytometric method (reference value: 4.82%). In kind it is functional.
The subject of test [19] is MCF7. The test can be described thus: Induction of apoptosis in human MCF7 cells at 27.15 ug/ml after 48 hrs by propidium iodide staining-based flow cytometric method (reference value: 0.55%). The class given is functional.
Test [20] has as its system MCF7. Briefly: Induction of apoptosis in human MCF7 cells assessed as cell aggregates at 27.15 ug/ml after 48 hrs by propidium iodide staining-based flow cytometric method (reference value: 4.49%). The class given is functional.
Test [21] has as its system MCF7. Briefly: Induction of apoptosis in human MCF7 cells assessed as cell debris at 27.15 ug/ml after 48 hrs by propidium iodide staining-based flow cytometric method (reference value: 2.75%). In kind it is functional.
In test [22] the test system is MCF7. The test can be described thus: Induction of apoptosis in human MCF7 cells assessed as induction of caspase-3 activity by measuring caspase-3 levels at 27.15 ug/ml after 24 hrs ELISA (reference value: 0.0197 ng/ml). In kind it is functional.

The term IC50 denotes the concentration that inhibits the measured activity by half. In the case of `COc1ccc(/C=C/C(=O)C2=NN(c3ccccc3)C3c4cc(OC)c(OC)cc4CCN23)cc1` (stereo not drawn), the IC50 in the test on A549 is 190 mg/L (≈ 404 µM); in the test with MCF7 [1], 68.5 mg/L (≈ 146 µM); in the test with HCT-116, 243 mg/L (≈ 518 µM); with HepG2 it was 218 mg/L (≈ 464 µM); in test [2], 115 mg/L (≈ 245 µM).
Turning to `COc1cc2c(cc1OC)C1N(CC2)C(C(=O)/C=C/c2ccc3c(c2)OCO3)=NN1c1ccccc1` (stereo not drawn), the half-inhibitory concentration (IC50) with A549 was determined as 201 mg/L (≈ 417 µM); in the test on MCF7 [1], 225 mg/L (≈ 466 µM); in the test on HCT-116, 187 mg/L (≈ 388 µM); in the test on HepG2, 122 mg/L (≈ 253 µM); in test [2], 51.9 mg/L (≈ 107 µM).
With `COc1cc2c(cc1OC)C1N(CC2)C(C(=O)/C=C/c2ccc([N+](=O)[O-])cc2)=NN1c1ccccc1` (stereo not drawn), the IC50 in the test on A549 is 207 mg/L (≈ 427 µM); with MCF7 [1] it was 50 mg/L (≈ 103 µM); in the test on HCT-116, 114 mg/L (≈ 236 µM); in the test with HepG2 it was 478 mg/L (≈ 986 µM); in test [2] it was 245 mg/L (≈ 506 µM). Further, the result in the test with MCF7 [3], in the test on MCF7 [4], in the test on MCF7 [5], with MCF7 [6], in the test with MCF7 [7] and in the test with MCF7 [8] was Active. The Activity with MCF7 [9] came out at 74.52%; with MCF7 [10], 17.06%; in the test with MCF7 [11], 0%; in the test on MCF7 [12], 8.72%; in the test with MCF7 [13] it was 4.85%; in the test with MCF7 [14], 3.88%. Besides, the Activity in the test on MCF7 [15] came out at 0.3573 ng/mL.
As to `COc1cc2c(cc1OC)C1N(CC2)C(C(=O)/C=C/c2ccc(Cl)cc2)=NN1c1ccccc1` (stereo not drawn), the half-maximal inhibitory concentration (IC50) in the test on A549 worked out at 156 mg/L (≈ 329 µM); in the test with MCF7 [1] it was 151 mg/L (≈ 319 µM); in the test on HCT-116, 622 mg/L (≈ 1310 µM); in the test with HepG2, 141 mg/L (≈ 297 µM); in test [2] it was 57.2 mg/L (≈ 121 µM).
With `COc1cc2c(cc1OC)C1N(CC2)C(C(=O)/C=C/c2ccccc2)=NN1c1ccccc1` (stereo not drawn), the IC50 with A549 came to 78.1 mg/L (≈ 178 µM); with MCF7 [1], 61.4 mg/L (≈ 140 µM); with HCT-116 it was 625 mg/L (≈ 1420 µM); with HepG2, 139 mg/L (≈ 317 µM); in test [2], 52.1 mg/L (≈ 119 µM).
For the compound `COc1cc2c(cc1OC)C1N(CC2)C(C(=O)/C=C/c2cc(OC)c(OC)c(OC)c2)=NN1c1ccccc1` (stereo not drawn), the 50% inhibitory concentration (IC50) was determined as 156 mg/L (≈ 295 µM) in the test with A549, 27.1 mg/L (≈ 51.3 µM) with MCF7 [1] and 107 mg/L (≈ 202 µM) in the test on HepG2. The outcome with MCF7 [3], with MCF7 [4], with MCF7 [5], with MCF7 [6], in the test on MCF7 [7] and with MCF7 [8] was Active. The Activity in the test with MCF7 [16] is reported as 66.11%; with MCF7 [17] it was 16.01%; in the test on MCF7 [18] it was 0.6%; in the test on MCF7 [19] it was 17.28%; with MCF7 [20] it was 7.92%; in the test on MCF7 [21] it was 5.71%. In addition, the Activity in the test on MCF7 [22] stood at 0.4108 ng/mL.
Consider `O=c1[nH]cc(F)c(=O)[nH]1` [FLUOROURACIL], for which the concentration for half-maximal inhibition (IC50) in the test with A549 came to 66 mg/L (≈ 507 µM); with MCF7 [1], 178 mg/L (≈ 1370 µM); with HCT-116 it was 201 mg/L (≈ 1550 µM); in the test with HepG2 it was 237 mg/L (≈ 1820 µM).

Values taken from ChEMBL document CHEMBL4138222, “Cytotoxicity, molecular modeling, cell cycle arrest, and apoptotic induction induced by novel tetrahydro-[1,2,4]triazolo[3,4-a]isoquinoline chalcones” (Eur J Med Chem, 2018).
